Values of other authors as cited in paper PMC5589927, “Visualization of ligand-induced dopamine D2S and D2L receptor internalization by TIRF microscopy” (Scientific Reports, 2017).

What was measured:
D2S receptors = conditions: stably transfected CHO cells, ref 46 (Itokawa et al.)
D2L receptors = conditions: stably transfected CHO cells, ref 46 (Itokawa et al.)

surface expressed D2S receptors unavailable for [3H]sulpiride (internalization) (D2S receptors; after incubation with agonist): about 44%
half-life of decrease D2S (D2S receptors): 19 min
internalization of D2L (D2L receptors; after incubation with agonist): 22%
half-life of decrease D2L (D2L receptors): 33 min
Compound: NCCc1ccc(O)c(O)c1 [dopamine]
